Experimental data taken from US6534099B1, “Pesticidal compositions containing menthyl salicylate” (Ecosmart Technologies, Inc., priority 1993, dated 2003).

Columns and labels:
German cockroaches = assay: Walk-across continuous exposure in treated jars (Study A and B); format: in vivo
Protocol: Experiment 1: To determine the lethal activity of menthyl salicylate against cockroaches. Menthyl salicylate was tested at 250 mg/jar against German cockroaches. Two replicates were used in this study. Three adult German cockroaches were used per replicate. Continuous exposure was performed with “walk-across”. All controls and treated roaches were under continuous observations for 6 hrs.
Experiment 1. To determine whether menthyl salicylate acts as a synergist to eugenol and /or PEP blend. This experiment was also conducted against German cockroaches as described in Study A. Several blends of Eugenol/PEP were tested.

black ants = assay: Open glass petri dish exposure (Study E); format: in vivo; conditions: mixed with soybean oil
Text: (§1) To address whether the efficacy of PEP will be increased with menthyl salicylate/soybean oil against harvester and black ants.
(§2) glass petri dishes 100 mm were used in this study
(§3) all treated dishes kept open during the time of exposure

harvester = assay: Open glass petri dish exposure (Study E); format: in vivo, harvester ants; conditions: mixed with soybean oil
Text: as §1, §2, §3

Structure (SMILES): CC1CCC(C(C)C)C(OC(=O)c2ccccc2O)C1 (stereo not drawn) [Menthyl salicylate, 2-hydroxybenzoic acid 5-methyl-2-(1-methylethyl)cyclohexyl ester]
- killing agent (conclusion in words) (German cockroaches; 250 mg/jar): good killing agent
- mortality (M) (German cockroaches; 250 mg/jar, 24 hr after continuous exposure): 100%
- KD (knock-down) (German cockroaches; menthyl salicylate 250 mg/jar, 20 min after exposure): 30%
- synergy with eugenol/PEP (in words) (German cockroaches; menthyl salicylate at 4-250 mg): synergizes the efficacy of eugenol/PEP
- time to 100% M (black ants): ≤ 40 min
- time to 100% M (harvester): ≤ 11 min
